Source: patent US20050085553A1, “Remedies for mild recognition deflict” (priority 2001, published 2005)

Assays:
[1] = test system: Fisher344 rats (27-month old, male); test: water maze test, learning deficit in old rats; type: in vivo, rat; settings: 0.3 or 1.0 mg/kg orally once a day for 14 days
Description: An Ameliorative Effect of the Agent on Learning Deficit in Old Rats
Fisher344 rats (27-month old, male) were previously subjected to four trials of a water maze test using a pool with a diameter of 90 cm and a platform on the surface of water in the pool. The rats with remarkable disability to swim were excluded and the rest were divided into several groups. The compound A (0.3 or 1.0 mg/kg) was orally administered to the rats once a day for 14 days. On the 10th day, the rats were subjected to four trials of a water maze test using a platform on the surface of water in a pool and confirmed again that they had no difficulty in swimming ability. Starting from the next day, the rats were subjected four times a day for 3 days to a water maze test using a pool with a diameter of 120 cm and a platform submerged below the surface of water in the pool. In this test, the time required for the rats to arrive at the platform was measured. Two trials were expressed as one block. During the behavioral pharmacological test period, the drug was administered after the test.

amyloid plaques = test: number and area of amyloid plaques, brain sections immunostained with BAN50; type: in vivo, mouse; settings: feed containing 56 ppm (about 7 mg/kg/day) for six months; sections containing dorsal hippocampus
Description: (§1) An Effect on Increase in Insoluble Aβ40/42 and Amyloid Plaque Formation in the Brains of Transgenic Mice with Swedish APP Mutation
Transgenic mice with Swedish amyloid precursor protein (APP) mutation (7- to 8-month old) were given solid feed containing the compound A (56 ppm) (equivalent to a dosage of about 7 mg/kg/day) or control feed for six months. After six months from the administration, one cerebral hemisphere was used for brain histological examination and the other hemisphere was used for determining the quantity of Aβ40/42. Cerebral cortex was used for measuring the quantity of Aβ. The accumulation type of insoluble Aβ40/42 protein were extracted by homogenization of the cerebral cortex in 25 times amount of Tris buffer (containing a protease inhibitor) followed by centrifugation to remove the supernatant. Then, 19 times amount of 70% formic acid was added to the insoluble precipitation and homogenized to solubilize it. After centrifugation, the supernatant was diluted to 1/20 with 1M Tris solution for neutralization and the diluted supernatant was used for determining the quantity of Aβ40/42 contained therein. Using enzyme-linked immunosorbent assay (ELISA), the quantity of accumulation-type Aβ40/42 was measured. […]

insoluble Aβ40 = test: quantity of insoluble Aβ40 in cerebral cortex of transgenic mice with Swedish APP mutation (ELISA); type: in vivo, mouse; settings: feed containing 56 ppm (about 7 mg/kg/day) for six months, 13-14 month old mice
Description: as §1
(§2) Transgenic mice with Swedish amyloid precursor protein (APP) mutation (7- to 8-month old) were given solid feed containing the compound A (56 ppm) (equivalent to a dosage of about 7 mg/kg/day) or control feed for six months. After six months from the administration, one cerebral hemisphere was used for brain histological examination and the other hemisphere was used for determining the quantity of Aβ40/42. Cerebral cortex was used for measuring the quantity of Aβ. The accumulation type of insoluble Aβ40/42 protein were extracted by homogenization of the cerebral cortex in 25 times amount of Tris buffer (containing a protease inhibitor) followed by centrifugation to remove the supernatant. Then, 19 times amount of 70% formic acid was added to the insoluble precipitation and homogenized to solubilize it. After centrifugation, the supernatant was diluted to 1/20 with 1M Tris solution for neutralization and the diluted supernatant was used for determining the quantity of Aβ40/42 contained therein. Using enzyme-linked immunosorbent assay (ELISA), the quantity of accumulation-type Aβ40/42 was measured.

[2] = test system: transgenic mice with Swedish APP mutation; test: general condition of the mice during the drug administration period; type: in vivo, mouse; settings: feed containing 56 ppm (about 7 mg/kg/day) for six months
Description: as §2

insoluble Aβ42 = test: quantity of insoluble Aβ42 in cerebral cortex of transgenic mice with Swedish APP mutation (ELISA); type: in vivo, mouse; settings: feed containing 56 ppm (about 7 mg/kg/day) for six months, 13-14 month old mice
Description: as §1, §2

CN(C)CC[C@@H]1CCc2cc(OCc3ccc(-c4ccccc4)cc3)ccc2C1.Cl.O [compound A, (R)-(+)-6-(4-biphenylyl)methoxy-2-[2-(N,N-dimethylamino)ethyl]tetralin Hydrochloride Monohydrate]
swimming time for escape ([1]; final training block, compared between the groups): significantly shortened
time required to arrive at the platform ([1]; water maze, large pool (120 cm), submerged platform, vs old control group): significantly improved
area of amyloid plaques, relative to the vehicle group (amyloid plaques): ~35 % of those in the vehicle group
number of amyloid plaques, relative to the vehicle group (amyloid plaques): about 40 % of those in the vehicle group
reduction of quantity of insoluble Aβ40 in contrast to the vehicle group (insoluble Aβ40): about 30%
change in the general condition of the mice including weight loss [2]: no change
reduction of quantity of insoluble Aβ42 in contrast to the vehicle group (insoluble Aβ42): about 30%
